Assays:
[1] = target: T1, h-GABAA α1β3γ2 (Homo sapiens, UniProt P14867+P18507); assay: Radioligand binding assay, [3H]Flumazenil competition, HEK293F membranes; conditions: for γ2/γ1 Selectivity Ratio / LogSel: Table 3; for γ2/γ1 Selectivity Ratio: Ki α1β3γ2 (nM)/Ki α2β2γ1 (nM); for LogSel: Log[Ki α1β3γ2 (nM)/Ki α2β2γ1 (nM)]
T1 construct: expressed in transfected cells; host or cells: HEK293F cells, membranes
Experimental: The affinity of compounds at GABAA γ2 subunit-containing receptors was measured by competition for [^3H]Flumazenil (81.1 Ci/mmol; Roche) binding to HEK293F cells expressing human (transiently transfected) receptors of composition α1β3γ2.
Harvested pellets from HEK293F cells expressing the different GABAA γ2 receptor subtypes were resuspended in Mannitol Buffer pH 7.2-7.4 and processed as described above for the cells expressing the GABAA γ1 subunit-containing receptors.
Assays were incubated to equilibrium for 1 hour at 4° C. and harvested onto GF/C uni-filters (Packard) by filtration using a Packard harvester and washing with ice-cold wash buffer (50 mM Tris; pH 7.5). After drying, filter-retained radioactivity was detected by liquid scintillation counting. Ki values were calculated using Excel-Fit (Microsoft) and are the means of two determinations.

[2] = target: T2, h-GABAA α2β2γ1 (Homo sapiens, UniProt P47869+Q8N1C3); assay: Radioligand binding assay, [3H]RO7239181 competition, HEK293F membranes; parameters: signal peptide of human GABAA α5 subunit (Met1 to Ser31), replacing the α2 signal peptide (N); expressed in transfected cells; host or cells: HEK293F cells (ThermoFisher R79007), membranes
T2 sequence (P47869 29-451): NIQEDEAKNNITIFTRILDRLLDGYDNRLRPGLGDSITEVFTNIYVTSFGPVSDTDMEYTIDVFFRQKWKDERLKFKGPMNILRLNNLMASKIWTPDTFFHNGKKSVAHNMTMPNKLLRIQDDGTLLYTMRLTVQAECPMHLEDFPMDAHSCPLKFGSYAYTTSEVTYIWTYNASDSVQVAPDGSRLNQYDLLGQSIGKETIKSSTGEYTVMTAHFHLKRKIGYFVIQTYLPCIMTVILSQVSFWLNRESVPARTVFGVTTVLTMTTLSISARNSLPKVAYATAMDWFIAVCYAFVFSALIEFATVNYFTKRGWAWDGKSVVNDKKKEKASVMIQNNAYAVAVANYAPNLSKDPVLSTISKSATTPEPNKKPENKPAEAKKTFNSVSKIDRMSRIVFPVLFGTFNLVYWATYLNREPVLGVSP
T2 sequence (P47870 25-512 partner limits assumed): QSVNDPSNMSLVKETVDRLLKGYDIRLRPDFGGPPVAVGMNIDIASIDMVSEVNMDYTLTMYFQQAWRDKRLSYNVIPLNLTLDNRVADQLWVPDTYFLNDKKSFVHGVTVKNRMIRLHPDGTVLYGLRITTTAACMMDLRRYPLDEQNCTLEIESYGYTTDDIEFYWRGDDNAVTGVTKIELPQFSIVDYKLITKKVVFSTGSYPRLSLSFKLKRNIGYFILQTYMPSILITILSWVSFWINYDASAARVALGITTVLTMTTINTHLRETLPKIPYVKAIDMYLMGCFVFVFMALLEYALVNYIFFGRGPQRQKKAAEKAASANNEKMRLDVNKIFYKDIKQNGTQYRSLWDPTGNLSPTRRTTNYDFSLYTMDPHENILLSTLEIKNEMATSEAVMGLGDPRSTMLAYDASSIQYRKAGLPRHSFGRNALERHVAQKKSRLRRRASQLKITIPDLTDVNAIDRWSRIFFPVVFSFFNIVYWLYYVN
T2 sequence (Q8N1C3 36-465): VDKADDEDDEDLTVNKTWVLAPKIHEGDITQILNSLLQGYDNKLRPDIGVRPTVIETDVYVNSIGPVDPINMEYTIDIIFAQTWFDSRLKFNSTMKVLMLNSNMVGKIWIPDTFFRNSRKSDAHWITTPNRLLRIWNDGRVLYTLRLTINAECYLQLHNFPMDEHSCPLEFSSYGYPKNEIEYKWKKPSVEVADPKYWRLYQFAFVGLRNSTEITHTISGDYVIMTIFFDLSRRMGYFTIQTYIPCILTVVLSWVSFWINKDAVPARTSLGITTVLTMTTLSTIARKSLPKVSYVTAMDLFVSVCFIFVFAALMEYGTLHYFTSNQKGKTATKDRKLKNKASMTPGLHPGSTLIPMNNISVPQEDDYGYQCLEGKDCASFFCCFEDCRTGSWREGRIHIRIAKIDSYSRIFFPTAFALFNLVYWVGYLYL
Experimental: (§1) The affinity of compounds at GABAA γ1 subunit-containing receptors was measured by competition for [^3H]RO7239181 (67.3 Ci/mmol; Roche) binding to membranes from HEK293F cells (ThermoFisher R79007) expressing human (transiently transfected) receptors of composition […], α2β2γ1, α1β2γ1.
(§2) Harvested pellets from HEK293F cells expressing the different GABAA receptor subtypes were resuspended in Mannitol Buffer pH 7.2-7.4 (Mannitol 0.29M, Triethylamine 10 mM, Acetic acid 10 mM, EDTA 1 mM plus protease inhibitors (20 tablets Complete, Roche Diagnostics Cat. No. 05 056 489 001 per liter)), washed two times and then resuspended at 1:10 to 1:15 dilution in the same buffer. Cell disruption was performed by stirring the suspension in a Parr vessel #4637 at 435 psi for 15 minutes, and then the suspensions were centrifuged at 1000×g for 15 minutes at 4° C. (Beckman Avanti J-HC; rotor JS-4.2). The supernatant (S1) was transferred in a 21 Schott flask and the pellet (P1) was resuspended with Mannitol Buffer up to 175 ml. The resuspended pellet was transferred into a 250 ml Corning centrifugal beaker and centrifuged at 1500×g for 10 minutes at 4° C. (Beckman Avanti J-HC; rotor JS-4.2). The supernatant (S1) was then transferred in the 21 Schott flask and the pellet was discarded. The supernatants (S1) were centrifuged in 500 ml Beckman polypropylene centrifugal beaker at 15′000×g for 30 minutes at 4° C. (Beckman Avanti J-20 XP; rotor JLA-10.500). The pellet (P2) was resuspended with Mannitol Buffer 1:1 and frozen at −80° C. The supernatant (S2) was centrifuged in 100 ml Beckman polypropylene centrifugal tubes at 48000×g for 50 minutes at 4° C. (Beckman Avanti J-20 XP; rotor JA-18). The supernatant (S3) was discarded and the pellet (P3) was resuspended with 1:1 Mannitol Buffer. The P2 and P3 protein concentration was determined with the BIORAD Standard assay method with bovine serum albumin as standard and measured on the NANO-Drop 1000. The membrane suspension was aliquots (500 μl per tube) and stored at −80° C. until required. Membrane homogenates were resuspended and polytronised (Polytron PT1200E Kinematica AG) in Potassium Phosphate 10 mM, KCl 100 mM binding buffer at pH 7.4 to a final assay concentration determined with a previous experiment.
(§3) Assays were incubated to equilibrium for 1 hour at 4° C. and then, membranes were filtered onto unifilter (96-well white microplate with bonded GF/C filters preincubated 20-50 minutes in 0.3% Polyethylenimine) with a Filtermate 196 harvester (Packard BioScience) and washed 4 times with cold Potassium Phosphate 10 mM pH 7.4, KCl 100 mM binding buffer. After drying, filter-retained radioactivity was detected by liquid scintillation counting. Ki values were calculated using Excel-Fit (Microsoft) and are the means of two determinations.

[3] = target: T2, h-GABAA α2β2γ1; assay: Two-electrode voltage clamp electrophysiology in Xenopus oocytes, modulation of GABA EC20 current; assay type: cell-based; parameters: host or cells: Xenopus laevis oocytes, RNA micro-injection; conditions: α2β2γ1 GABAA receptor subtype expressing oocytes; reference PAMs
Experimental: Xenopus laevis oocytes at maturation stages V-VJ were used for the expression of cloned mRNA encoding GABAA receptor subunits. Oocytes ready for RNA micro-injection were bought from Ecocyte, Castrop-Rauxel, Germany and stored in modified Barth's medium (composition in mM: NaCl 88, KCl 1, NaHCO3 2.4, HEPES 10, MgSO4 0.82, CaNO3 0.33, CaCl2 0.33, pH=7.5) at 20° C. until the experiment.
Oocytes were plated in 96-well plates for microinjection using the Roboinject automated instrument (MultiChannelSystems, Reutlingen, Germany). Approximately 50 nL of an aqueous solution containing the RNA transcripts for the subunits of the desired GABAA receptor subtype was injected into each oocyte. […] Oocytes were kept in modified Barth's medium (composition in mM: NaCl 88, KCl 1, NaHCO3 […], HEPES 10, MgSO4 0.82, CaNO3 0.33, CaCl2 0.33, pH=7.5) at 20° C. until the experiment.
Electrophysiological experiments were performed using the Roboocyte instrument (MultiChannelSystems, Reutlingen, Germany) on days 3 to 5 after the micro-injection of mRNA. During the experiment the oocytes were constantly superfused by a solution containing (in mM) NaCl 90, KCl 1, HEPES 5, MgCl2 1, CaCl2 1 (pH 7.4). Oocytes were impaled by two glass microelectrodes (resistance: 0.5-0.8 MΩ) which were filled with a solution containing KCl 1M+K-acetate 1.5 M and voltage-clamped to −80 mV. The recordings were performed at room temperature using the Roboocyte two-electrode voltage clamp system (Multichannelsystem). After an initial equilibration period of 1.5 min GABA was added for 1.5 min at a concentration evoking approximately 20% of a maximal current response (EC20). After another rest interval of 2.5 min GABA was again added evoking a response of similar amplitude and shape. […] Current traces were recorded at a digitization rate of 10 Hz during and shortly before and after the GABA application.
Each compound and concentration was tested on at least 3 oocytes. Different oocytes were used for different compound concentrations.
For the analysis, the digitized current traces of the first and second GABA response were superimposed and, if necessary, rescaled to equal maximal amplitudes. The ratio between the two responses during the time interval of test compound application was calculated point by point. The extremum of the resulting “ratio trace” was taken as the efficacy (“Fold increase”) of the compound expressed as “% modulation of GABA EC20” (100*(Fold increase−1)).

[4] = target: T3, h-GABAA α1β2γ1 (Homo sapiens, UniProt P14867+Q8N1C3); assay: Radioligand binding assay, [3H]RO7239181 competition, HEK293F membranes
T3 construct: expressed in transfected cells; host or cells: HEK293F cells (ThermoFisher R79007), membranes
T3 sequence (P14867 28-456): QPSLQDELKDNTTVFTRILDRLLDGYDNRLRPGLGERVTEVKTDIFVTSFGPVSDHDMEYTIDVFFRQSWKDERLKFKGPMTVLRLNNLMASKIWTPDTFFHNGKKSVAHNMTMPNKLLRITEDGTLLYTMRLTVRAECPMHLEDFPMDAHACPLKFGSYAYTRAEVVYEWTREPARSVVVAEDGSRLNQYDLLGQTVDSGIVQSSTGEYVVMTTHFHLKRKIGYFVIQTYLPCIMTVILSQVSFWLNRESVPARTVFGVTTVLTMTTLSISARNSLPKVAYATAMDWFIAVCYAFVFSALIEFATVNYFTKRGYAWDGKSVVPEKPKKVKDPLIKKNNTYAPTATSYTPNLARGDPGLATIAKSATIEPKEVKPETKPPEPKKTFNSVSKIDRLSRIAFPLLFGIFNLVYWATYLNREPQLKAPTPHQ
T3 sequence (P47870 25-512 partner limits assumed): T2 sequence (P47870 25-512 partner limits assumed)
T3 sequence (Q8N1C3 36-465): T2 sequence (Q8N1C3 36-465)
Experimental: as §1, §2, §3

Structure (SMILES)	Ki [1] [nM]	γ2/γ1 Selectivity Ratio [1]	LogSel [1]	Ki [2] [nM]	potentiation of the GABA-induced current [3] [%]	Ki [4] [nM]
Cc1nnc2n1-c1ccc(C(F)(F)F)cc1C(c1c(F)cccc1F)=NC2 [RE-B, 6-(2,6-difluorophenyl)-1-methyl-8-(trifluoromethyl)-4H-[1,2,4]triazolo[4,3-a][1,4]benzodiazepine, reference compound]	15.6	0.23	−0.64	68.4		
Cc1nnc2n1-c1ccc(Br)cc1C(c1c(F)cccc1F)=NC2 [RE-A, 8-bromo-6-(2,6-difluorophenyl)-1-methyl-4H-[1,2,4]triazolo[4,3-a][1,4]benzodiazepine, reference compound]	5.6	0.18	−0.74	32.1		
Cc1nnc2n1-c1cccc(Cl)c1C(c1c(F)cccc1F)=NC2 [RE-G, 7-chloro-6-(2,6-difluorophenyl)-1-methyl-4H-[1,2,4]triazolo[4,3-a][1,4]benzodiazepine, reference compound]	302	9.8	0.99	30.8		
Clc1ccc2c(c1)C(c1ccccc1)=NCc1nncn1-2 [Estazolam, reference compound]	28.4		−2.0	3180		
Cc1nnc2n1-c1ccccc1C(c1c(F)cccc1F)=NC2 [RE-C, 6-(2,6-difluorophenyl)-1-methyl-4H-[1,2,4]triazolo[4,3-a][1,4]benzodiazepine, reference compound]	5.8	0.0092	−2.0	627		
Cc1nnc2n1-c1ccc(Cl)cc1C(c1ccccc1Cl)=NC2 [Triazolam, reference compound]			−1.5		~60	
Cc1nnc2n1-c1ccc(Cl)cc1C(c1ccccc1)=NC2 [Alprazolam, reference compound]	19.6		−2.3	3940		5920
